Data: ChEMBL document CHEMBL1125118, “Penta- and hexadienoic acid derivatives: a novel series of 5-lipoxygenase inhibitors” (J Med Chem, 1990)
pIC50: −log10 of the molar value.

Columns and labels:
Mus musculus [1] = test: In vivo inhibition of ear oedema in mice following p.o. administration.; type: functional; details: po
[2] = target: T1, Polyunsaturated fatty acid 5-lipoxygenase (Rattus norvegicus, UniProt P12527); test: Iin vitro inhibition of 5-lipoxygenase activity in rat basophil leukemia type 1(RBL1) cell homogenates, (reduction of [14C]-5-HETE formation)
T1 sequence (P12527 whole entry): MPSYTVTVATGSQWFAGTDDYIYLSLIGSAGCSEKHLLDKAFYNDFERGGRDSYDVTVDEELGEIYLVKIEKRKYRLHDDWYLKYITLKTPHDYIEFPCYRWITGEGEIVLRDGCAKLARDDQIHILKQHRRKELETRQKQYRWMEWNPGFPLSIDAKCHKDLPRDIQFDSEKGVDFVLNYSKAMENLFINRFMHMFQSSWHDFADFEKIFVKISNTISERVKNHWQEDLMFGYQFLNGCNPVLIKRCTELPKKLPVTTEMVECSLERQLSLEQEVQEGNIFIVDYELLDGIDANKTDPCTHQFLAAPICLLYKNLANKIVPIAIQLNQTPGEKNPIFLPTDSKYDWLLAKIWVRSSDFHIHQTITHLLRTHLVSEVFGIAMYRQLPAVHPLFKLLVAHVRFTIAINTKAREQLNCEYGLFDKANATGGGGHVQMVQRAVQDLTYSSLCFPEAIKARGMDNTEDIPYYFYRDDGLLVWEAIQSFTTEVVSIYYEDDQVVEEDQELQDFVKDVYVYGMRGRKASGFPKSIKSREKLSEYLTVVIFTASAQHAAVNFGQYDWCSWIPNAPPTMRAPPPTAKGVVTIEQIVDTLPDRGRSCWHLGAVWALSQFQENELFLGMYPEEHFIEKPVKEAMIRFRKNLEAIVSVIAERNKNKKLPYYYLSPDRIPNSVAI

Mus musculus [3] = test: In vivo inhibition of AA induced ear oedema in mice following topical administration.; type: functional
Cyclooxygenase = target: T2, Cyclooxygenase (Rattus norvegicus, UniProt P35355+Q63921); test: In vitro for prostaglandin G/H synthase inhibitory activity against rat basophil leukemia type 1 cell homogenates, by measuring the radioactivity of [14C]-PGD2
T2 sequence (P35355 whole entry): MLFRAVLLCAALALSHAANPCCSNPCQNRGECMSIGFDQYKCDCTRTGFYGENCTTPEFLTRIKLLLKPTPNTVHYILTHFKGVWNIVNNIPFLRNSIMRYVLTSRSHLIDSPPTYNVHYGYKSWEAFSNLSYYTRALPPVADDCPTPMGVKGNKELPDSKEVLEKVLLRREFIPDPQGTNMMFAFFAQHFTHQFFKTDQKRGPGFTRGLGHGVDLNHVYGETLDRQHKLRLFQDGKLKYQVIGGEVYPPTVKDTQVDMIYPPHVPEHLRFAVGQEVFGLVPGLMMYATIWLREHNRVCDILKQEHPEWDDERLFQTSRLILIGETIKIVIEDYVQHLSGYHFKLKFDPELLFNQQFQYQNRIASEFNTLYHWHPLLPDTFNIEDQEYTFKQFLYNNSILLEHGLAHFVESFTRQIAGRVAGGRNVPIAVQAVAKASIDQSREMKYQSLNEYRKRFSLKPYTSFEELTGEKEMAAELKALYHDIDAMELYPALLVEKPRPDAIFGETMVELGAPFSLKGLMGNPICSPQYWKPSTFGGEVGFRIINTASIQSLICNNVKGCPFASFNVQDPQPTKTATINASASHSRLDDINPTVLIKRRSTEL
T2 sequence (Q63921 whole entry): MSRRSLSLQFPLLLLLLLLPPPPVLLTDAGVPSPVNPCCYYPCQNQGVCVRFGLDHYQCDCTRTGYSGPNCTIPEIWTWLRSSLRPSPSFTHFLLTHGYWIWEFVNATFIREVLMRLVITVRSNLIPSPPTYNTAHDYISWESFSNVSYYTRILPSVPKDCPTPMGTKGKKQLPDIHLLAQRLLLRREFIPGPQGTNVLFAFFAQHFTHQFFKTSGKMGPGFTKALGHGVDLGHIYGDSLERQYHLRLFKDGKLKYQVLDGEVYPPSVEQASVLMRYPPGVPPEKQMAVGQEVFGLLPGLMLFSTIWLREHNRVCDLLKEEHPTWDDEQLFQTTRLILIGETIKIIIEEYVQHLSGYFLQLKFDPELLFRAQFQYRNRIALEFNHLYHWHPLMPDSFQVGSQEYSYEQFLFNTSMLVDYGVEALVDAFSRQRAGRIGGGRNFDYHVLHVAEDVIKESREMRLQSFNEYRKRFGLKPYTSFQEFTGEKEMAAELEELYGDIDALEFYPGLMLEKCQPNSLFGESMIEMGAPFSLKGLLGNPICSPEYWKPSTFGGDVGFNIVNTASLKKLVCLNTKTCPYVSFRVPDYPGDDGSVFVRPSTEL

[4] = target: T1, Polyunsaturated fatty acid 5-lipoxygenase; test: In vitro inhibition of 5-lipoxygenase in rat (peritoneal assay)
[5] = target: T1, Polyunsaturated fatty acid 5-lipoxygenase; test: In vitro inhibitory activity against 5-Lipoxygenase in rat by Peritoneal 5-lipoxygenase assay

SMILES | ED50 (Mus musculus [1]) | ED50 (Mus musculus [3]) | IC50 (Cyclooxygenase) | further results
CCO/C(O)=C(/C=CC(=O)C(=O)c1ccccc1)Sc1ccccc1 | > 50 mg/kg | >2 mg ear-1 | 12 µM | pIC50 [2]: 5.70; pIC50 [4]: 5.52
CCOC(=O)C(=CC=C(C(=O)OCC)N(C)C)Sc1ccccc1 |  | >2 mg ear-1 |  | 
CCOC(=O)C(=CC=C(SC)C(=O)c1ccccc1)N(C)C |  |  | > 50 µM | pIC50 [2]: < 4.30; pIC50 [5]: < 4.30
CC(C)(C)c1cc(/C=C2\CCOC2=O)cc(C(C)(C)C)c1O | 100 mg/kg | 0.3 mg ear-1 |  | 
O=C(O)C(O)=CC=Cc1ccccc1 |  | >5 mg ear-1 |  | 
CCOC(=O)C(=O)C=C/C(Sc1ccccc1)=C(\O)c1ccccc1 |  | >2 mg ear-1 |  | 
CCO/C(O)=C(/C=CC=O)Sc1ccccc1 |  | 2 mg ear-1 |  | 
CCSC(=CC=C(O)C(=O)O)C(=O)O |  | >0.5 mg ear-1 |  | 
CCOC(=O)C(=O)C=C/C(SCc1ccccc1)=C(\O)OCC |  | >2 mg ear-1 |  | 
CCOC(=O)C(=O)C=C/C(=C(\O)OCC)c1ccccc1 |  | >2 mg ear-1 |  | 
CCOC(=O)C(=O)C=C/C(O)=C(\O)OCC |  | >2 mg ear-1 |  | 
CCOC(=O)C(=O)C=C/C(C(=O)c1ccccc1)=C(\O)OCC |  | >2 mg ear-1 |  | 
NC1=NN(c2cccc(C(F)(F)F)c2)CC1 [BW-755C] | 75 mg/kg | 0.08 mg ear-1 | 6 µM | 
CC1=NN(CCOc2ccc3ccccc3c2)C(=O)C1 [NAFAZATROM] | > 100 mg/kg | 2 mg ear-1 |  | 
CC(Cc1ccc(O)c(O)c1)C(C)Cc1ccc(O)c(O)c1 (stereo not given) [NORDIHYDROGUAIARETIC ACID] | > 100 mg/kg | 0.1 mg ear-1 | > 50 µM | 
O=c1c(O)c(-c2ccc(O)c(O)c2)oc2cc(O)cc(O)c12 [QUERCETIN] | > 100 mg/kg | 1 mg ear-1 | > 50 µM | 
